Measured values taken from ChEMBL document CHEMBL4359892, “Discovery of novel indolylarylsulfones as potent HIV-1 NNRTIs via structure-guided scaffold morphing” (Eur J Med Chem, 2019).

Assays:
[1] = system: Human immunodeficiency virus 1; assay: Antiviral activity against drug resistant HIV-1 RES056 harboring reverse transcriptase K103N/Y181C double mutant infected in human MT4 cells assessed as reduction in virus-induced cytopathic effect incubated for 5 days by MTT assay; format: functional, organism-based; conditions: Human immunodeficiency virus 1, RES056, MT4, 120 h
[2] = Selectivity index, ratio of CC50 for human MT4 cells to EC50 for antiviral activity against HIV IIIB; format: toxicity; conditions: read-out: Ratio CC50/EC50
[3] = Selectivity index, ratio of CC50 for human MT4 cells to EC50 for antiviral activity against HIV RES056; format: toxicity; conditions: read-out: Ratio CC50/EC50
[4] = Cytotoxicity against human MT4 cells assessed as reduction in cell viability incubated for 5 days by MTT assay; format: cell-based
[5] = system: Human immunodeficiency virus 1; assay: Antiviral activity against HIV-1 3B infected in human MT4 cells assessed as reduction in virus-induced cytopathic effect incubated for 5 days by MTT assay; format: functional, organism-based; conditions: Human immunodeficiency virus 1, 3B, MT4, 120 h

**Q.** With `Cc1cc(C)cc(S(=O)(=O)c2c(C(=O)NC3CN(Cc4ccccc4F)C3)[nH]c3ccc(Cl)cc23)c1` as the compound, how does the EC50 [1] read?
**A.** The EC50 was 65.1 µM.

**Q.** What about the selectivity ratio [2] of the same compound?
**A.** The selectivity ratio was greater than 7810.

**Q.** What about the selectivity ratio [3] of the same compound?
**A.** The selectivity ratio was greater than 4.

**Q.** And the CC50 at 120 h [4]?
**A.** Its CC50 at 120 h is greater than 238 µM.

**Q.** And the EC50 [5]?
**A.** The EC50 was 0.03 µM.

**Q.** With `Cc1cc(C)cc(S(=O)(=O)c2c(C(=O)NCCP(=O)(O)O)[nH]c3ccc(Cl)cc23)c1` as the compound, how does the EC50 [1] read?
**A.** Its EC50 is greater than 237 µM.

**Q.** And the selectivity ratio [2]?
**A.** Its selectivity ratio is greater than 1100.

**Q.** And the CC50 at 120 h [4]?
**A.** Its CC50 at 120 h is greater than 237 µM.

**Q.** What about the EC50 [5] of the same compound?
**A.** Its EC50 is 0.21 µM.

**Q.** What does the source list for `Cc1cc(C)cc(S(=O)(=O)c2c(C(=O)NC3CN(S(C)(=O)=O)C3)[nH]c3ccc(Cl)cc23)c1`?
**A.** EC50 [1]: > 252 µM; selectivity ratio [2]: > 15200; CC50 at 120 h [4]: > 252 µM; EC50 [5]: 0.017 µM

**Q.** For `Cc1cc(C)cc(S(=O)(=O)c2c(C(=O)NC3CNC3)[nH]c3ccc(Cl)cc23)c1`, which EC50 [1] is on record?
**A.** The EC50 was no less than 37.3 µM.

**Q.** And the selectivity ratio [2]?
**A.** The selectivity ratio was 495.

**Q.** And the selectivity ratio [3]?
**A.** The selectivity ratio was less than 1.

**Q.** And the CC50 at 120 h [4]?
**A.** Its CC50 at 120 h is 37.3 µM.

**Q.** What about the EC50 [5] of the same compound?
**A.** The EC50 was 0.074 µM.

**Q.** Which EC50 [1] does the source give for `Cc1cc(C)cc(S(=O)(=O)c2c(C(=O)N[C@@H]3CCN(Cc4ccccc4F)C3)[nH]c3ccc(Cl)cc23)c1` here?
**A.** Its EC50 is greater than 232 µM.

**Q.** What about the selectivity ratio [2] of the same compound?
**A.** The selectivity ratio was greater than 1860.

**Q.** And the CC50 at 120 h [4]?
**A.** The CC50 at 120 h was greater than 232 µM.

**Q.** And the EC50 [5]?
**A.** Its EC50 is 0.12 µM.

**Q.** With `Cc1cc(C)cc(S(=O)(=O)c2c(C(=O)NC3CN(Cc4cccnc4)C3)[nH]c3ccc(Cl)cc23)c1` as the compound, how does the EC50 [1] read?
**A.** Its EC50 is greater than 36 µM.

**Q.** And the selectivity ratio [2]?
**A.** The selectivity ratio was 2480.

**Q.** And the selectivity ratio [3]?
**A.** Its selectivity ratio is less than 1.

**Q.** What about the CC50 at 120 h [4] of the same compound?
**A.** Its CC50 at 120 h is 36 µM.

**Q.** And the EC50 [5]?
**A.** Its EC50 is 0.015 µM.

**Q.** For `Cc1cc(C)cc(S(=O)(=O)c2c(C(=O)N[C@H]3CCN(Cc4n[nH]c(=O)n4C)C3)[nH]c3ccc(Cl)cc23)c1`, which EC50 [1] is on record?
**A.** Its EC50 is no less than 21.4 µM.

**Q.** And the selectivity ratio [2]?
**A.** Its selectivity ratio is 2980.

**Q.** What about the selectivity ratio [3] of the same compound?
**A.** The selectivity ratio was less than 1.

**Q.** What about the CC50 at 120 h [4] of the same compound?
**A.** Its CC50 at 120 h is 21.4 µM.

**Q.** What about the EC50 [5] of the same compound?
**A.** The EC50 was 0.0072 µM.

**Q.** Which EC50 [1] does the source give for `Cc1cc(C)cc(S(=O)(=O)c2c(C(=O)N[C@H]3CCN(Cc4ccccc4C#N)C3)[nH]c3ccc(Cl)cc23)c1` here?
**A.** Its EC50 is 174 µM.

**Q.** And the selectivity ratio [2]?
**A.** The selectivity ratio was greater than 1350.

**Q.** What about the selectivity ratio [3] of the same compound?
**A.** Its selectivity ratio is greater than 1.

**Q.** And the CC50 at 120 h [4]?
**A.** The CC50 at 120 h was greater than 229 µM.

**Q.** What about the EC50 [5] of the same compound?
**A.** Its EC50 is 0.17 µM.

**Q.** Which results are given for `Cc1cc(C)cc(S(=O)(=O)c2c(C(=O)NC3CN(Cc4ccccc4C#N)C3)[nH]c3ccc(Cl)cc23)c1`?
**A.** EC50 [1]: 66.8 µM; selectivity ratio [2]: > 18700; selectivity ratio [3]: > 4; CC50 at 120 h [4]: > 235 µM; EC50 [5]: 0.013 µM

**Q.** Which EC50 [1] does the source give for `Cc1cc(C)cc(S(=O)(=O)c2c(C(=O)N[C@@H]3CCN(Cc4cccnc4)C3)[nH]c3ccc(Cl)cc23)c1` here?
**A.** The EC50 was no less than 36.5 µM.

**Q.** What about the selectivity ratio [2] of the same compound?
**A.** The selectivity ratio was 627.

**Q.** What about the selectivity ratio [3] of the same compound?
**A.** Its selectivity ratio is less than 1.

**Q.** And the CC50 at 120 h [4]?
**A.** Its CC50 at 120 h is 36.5 µM.

**Q.** What about the EC50 [5] of the same compound?
**A.** The EC50 was 0.057 µM.

**Q.** Which results are given for `Cc1cc(C)cc(S(=O)(=O)c2c(C(=O)N[C@H]3CCN(Cc4cccnc4)C3)[nH]c3ccc(Cl)cc23)c1`?
**A.** EC50 [1]: ≥ 22.8 µM; selectivity ratio [2]: 2010; selectivity ratio [3]: < 1; CC50 at 120 h [4]: 22.8 µM; EC50 [5]: 0.011 µM

**Q.** What does the source list for `Cc1cc(C)cc(S(=O)(=O)c2c(C(=O)N[C@@H]3CCNC3)[nH]c3ccc(Cl)cc23)c1`?
**A.** EC50 [1]: ≥ 9.72 µM; selectivity ratio [3]: < 1; CC50 at 120 h [4]: 37.3 µM; EC50 [5]: 0.049 µM

**Q.** For `Cc1cc(C)cc(S(=O)(=O)c2c(C(=O)N[C@H]3CCN(Cc4ccccc4F)C3)[nH]c3ccc(Cl)cc23)c1`, which EC50 [1] is on record?
**A.** The EC50 was no less than 215 µM.

**Q.** What about the selectivity ratio [2] of the same compound?
**A.** Its selectivity ratio is 2580.

**Q.** And the selectivity ratio [3]?
**A.** Its selectivity ratio is less than 1.

**Q.** What about the CC50 at 120 h [4] of the same compound?
**A.** Its CC50 at 120 h is 215 µM.

**Q.** What about the EC50 [5] of the same compound?
**A.** Its EC50 is 0.083 µM.

**Q.** Which results are given for `Cc1cc(C)cc(S(=O)(=O)c2c(C(=O)NCCn3ccc(=O)[nH]c3=O)[nH]c3ccc(Cl)cc23)c1`?
**A.** EC50 [1]: > 265 µM; selectivity ratio [2]: > 60; CC50 at 120 h [4]: > 265 µM; EC50 [5]: 4.42 µM

**Q.** Which results are given for `Cc1cc(C)cc(S(=O)(=O)c2c(C(=O)N[C@@H]3CCN(Cc4ccccc4C#N)C3)[nH]c3ccc(Cl)cc23)c1`?
**A.** EC50 [1]: > 186 µM; selectivity ratio [2]: 2580; CC50 at 120 h [4]: ≥ 186 µM; EC50 [5]: 0.053 µM

**Q.** Which results are given for `Cc1cc(C)cc(S(=O)(=O)c2c(C(=O)N[C@H]3CCNC3)[nH]c3ccc(Cl)cc23)c1`?
**A.** EC50 [1]: ≥ 10 µM; selectivity ratio [2]: 473; selectivity ratio [3]: < 1; CC50 at 120 h [4]: 10 µM; EC50 [5]: 0.021 µM

**Q.** For `Cc1cc(C)cc(S(=O)(=O)c2c(C(=O)N[C@@H]3CCN(Cc4n[nH]c(=O)n4C)C3)[nH]c3ccc(Cl)cc23)c1`, which EC50 [1] is on record?
**A.** Its EC50 is no less than 22.4 µM.

**Q.** And the selectivity ratio [2]?
**A.** Its selectivity ratio is 634.

**Q.** And the selectivity ratio [3]?
**A.** Its selectivity ratio is less than 1.

**Q.** And the CC50 at 120 h [4]?
**A.** Its CC50 at 120 h is 22.4 µM.

**Q.** What about the EC50 [5] of the same compound?
**A.** Its EC50 is 0.035 µM.
